Legend:
Experiment in all cases: relative viability (nuclei count vs DMSO), 5 days (fraction); higher = more cells survive
LK-2 = tested on: LK-2
How it was run: (§1)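 The day after seeding in 1536-well plates, lung cancer cell lines were treated by pin tool with a single drug, or with a fixed anchor-drug dose together with five library-drug doses (not always all listed) in √10 steps. After 5 days, a combined fix-and-stain solution (final 0.05% Triton X-100, 1% formaldehyde, 1 ug/ml Hoechst) was added. Nuclei counted on 4× images gave relative viability as treated counts over vehicle counts, reported as the median of duplicate plates.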

NCI-H1666 = tested on: NCI-H1666
How it was run: as §1

ABC-1 = tested on: ABC-1
How it was run: as §1

NCI-H2009 = tested on: NCI-H2009
How it was run: as §1

BEN = tested on: BEN
How it was run: as §1

NCI-H441 = tested on: NCI-H441
How it was run: as §1

LOU-NH91 = tested on: LOU-NH91
How it was run: as §1

HARA = tested on: HARA
How it was run: as §1

PC-14 = tested on: PC-14
How it was run: as §1

CAL-12T = tested on: CAL-12T
How it was run: as §1

201T = tested on: 201T
How it was run: as §1

HCC-366 = tested on: HCC-366
How it was run: as §1

NCI-H460 = tested on: NCI-H460
How it was run: as §1

NCI-H727 = tested on: NCI-H727
How it was run: as §1

EKVX = tested on: EKVX
How it was run: as §1

SW 900 = tested on: SW 900
How it was run: as §1

NCI-H3122 = tested on: NCI-H3122
How it was run: as §1

COR-L 105 = tested on: COR-L 105
How it was run: as §1

NCI-H661 = tested on: NCI-H661
How it was run: as §1

NCI-H1650 = tested on: NCI-H1650
How it was run: as §1

NCI-H1437 = tested on: NCI-H1437
How it was run: as §1

NCI-H2170 = tested on: NCI-H2170
How it was run: as §1

## COc1nc(C)cnc1NS(=O)(=O)c1cccnc1-c1ccc(-c2nnco2)cc1 [Zibotentan] + O=C(c1cc(Cc2n[nH]c(=O)c3ccccc23)ccc1F)N1CCN(C(=O)C2CC2)CC1 [Olaparib] (partner 8 µM)
LK-2; first compound 0.08 µM
  relative viability: 0.945
LK-2; first compound 0.253 µM
  relative viability: 0.521
LK-2; first compound 0.8 µM
  relative viability: 0.75
LK-2; first compound 2.53 µM
  relative viability: 0.718
NCI-H1666; first compound 0.08 µM
  relative viability: 0.753
NCI-H1666; first compound 0.253 µM
  relative viability: 0.726
NCI-H1666; first compound 0.8 µM
  relative viability: 0.765
NCI-H1666; first compound 2.53 µM
  relative viability: 0.728
ABC-1; first compound 0.08 µM
  relative viability: 1
ABC-1; first compound 0.253 µM
  relative viability: 0.527
ABC-1; first compound 0.8 µM
  relative viability: 0.8
ABC-1; first compound 2.53 µM
  relative viability: 0.819
NCI-H2009; first compound 0.08 µM
  relative viability: 0.688
NCI-H2009; first compound 0.253 µM
  relative viability: 0.589
NCI-H2009; first compound 0.8 µM
  relative viability: 0.671
NCI-H2009; first compound 2.53 µM
  relative viability: 0.787
BEN; first compound 0.08 µM
  relative viability: 1.15
BEN; first compound 0.253 µM
  relative viability: 1.09
BEN; first compound 0.8 µM
  relative viability: 1.09
BEN; first compound 2.53 µM
  relative viability: 0.958
NCI-H441; first compound 0.08 µM
  relative viability: 0.549
NCI-H441; first compound 0.253 µM
  relative viability: 0.517
NCI-H441; first compound 0.8 µM
  relative viability: 0.638
NCI-H441; first compound 2.53 µM
  relative viability: 0.576
LOU-NH91; first compound 0.08 µM
  relative viability: 0.908
LOU-NH91; first compound 0.253 µM
  relative viability: 0.854
LOU-NH91; first compound 0.8 µM
  relative viability: 0.999
LOU-NH91; first compound 2.53 µM
  relative viability: 0.947
HARA; first compound 0.08 µM
  relative viability: 0.856
HARA; first compound 0.8 µM
  relative viability: 0.455
HARA; first compound 2.53 µM
  relative viability: 0.883
PC-14; first compound 0.08 µM
  relative viability: 0.206
PC-14; first compound 0.253 µM
  relative viability: 0.271
PC-14; first compound 0.8 µM
  relative viability: 0.276
PC-14; first compound 2.53 µM
  relative viability: 0.315
CAL-12T; first compound 0.08 µM
  relative viability: 0.742
CAL-12T; first compound 0.253 µM
  relative viability: 0.67
CAL-12T; first compound 0.8 µM
  relative viability: 0.768
CAL-12T; first compound 2.53 µM
  relative viability: 0.664
201T; first compound 0.08 µM
  relative viability: 0.819
201T; first compound 0.253 µM
  relative viability: 0.828
201T; first compound 0.8 µM
  relative viability: 0.846
201T; first compound 2.53 µM
  relative viability: 0.876
HCC-366; first compound 0.08 µM
  relative viability: 0.396
HCC-366; first compound 0.253 µM
  relative viability: 0.34
HCC-366; first compound 0.8 µM
  relative viability: 0.342
HCC-366; first compound 2.53 µM
  relative viability: 0.365
NCI-H460; first compound 0.08 µM
  relative viability: 0.42
NCI-H460; first compound 0.253 µM
  relative viability: 0.346
NCI-H460; first compound 0.8 µM
  relative viability: 0.322
NCI-H460; first compound 2.53 µM
  relative viability: 0.481
NCI-H727; first compound 0.08 µM
  relative viability: 0.712
NCI-H727; first compound 0.253 µM
  relative viability: 0.586
NCI-H727; first compound 0.8 µM
  relative viability: 0.661
NCI-H727; first compound 2.53 µM
  relative viability: 0.868
EKVX; first compound 0.08 µM
  relative viability: 0.909
EKVX; first compound 0.253 µM
  relative viability: 0.733
EKVX; first compound 0.8 µM
  relative viability: 0.799
EKVX; first compound 2.53 µM
  relative viability: 0.917
SW 900; first compound 0.08 µM
  relative viability: 0.922
SW 900; first compound 0.253 µM
  relative viability: 0.647
SW 900; first compound 0.8 µM
  relative viability: 0.853
SW 900; first compound 2.53 µM
  relative viability: 0.81
NCI-H3122; first compound 0.08 µM
  relative viability: 0.625
NCI-H3122; first compound 0.253 µM
  relative viability: 0.549
NCI-H3122; first compound 0.8 µM
  relative viability: 0.581
NCI-H3122; first compound 2.53 µM
  relative viability: 0.608
COR-L 105; first compound 0.08 µM
  relative viability: 0.68
COR-L 105; first compound 0.253 µM
  relative viability: 0.605
COR-L 105; first compound 0.8 µM
  relative viability: 0.721
COR-L 105; first compound 2.53 µM
  relative viability: 0.784
NCI-H661; first compound 0.08 µM
  relative viability: 0.776
NCI-H661; first compound 0.253 µM
  relative viability: 0.677
NCI-H661; first compound 0.8 µM
  relative viability: 0.791
NCI-H661; first compound 2.53 µM
  relative viability: 0.751
NCI-H1650; first compound 0.08 µM
  relative viability: 0.803
NCI-H1650; first compound 0.8 µM
  relative viability: 0.757
NCI-H1650; first compound 2.53 µM
  relative viability: 0.682
NCI-H1437; first compound 0.08 µM
  relative viability: 0.64
NCI-H1437; first compound 0.253 µM
  relative viability: 0.629
NCI-H1437; first compound 0.8 µM
  relative viability: 0.617
NCI-H1437; first compound 2.53 µM
  relative viability: 0.621
NCI-H2170; first compound 0.08 µM
  relative viability: 0.571
NCI-H2170; first compound 0.253 µM
  relative viability: 0.648
NCI-H2170; first compound 0.8 µM
  relative viability: 0.522
NCI-H2170; first compound 2.53 µM
  relative viability: 0.568
